Reference: US20240115557A1, “INHIBITORS OF RNA-GUIDED NUCLEASES AND USES THEREOF” (The Brigham and Women's Hospital, Inc., priority 2022, published 2024)

Tests used:
SpCas9 [1] = molecular target: T1, SpCas9 (Streptococcus pyogenes serotype M1, UniProt Q99ZW2); assay: In vitro DNA cleavage assay, SpCas9; assay type: biochemical; conditions: 0-40 μM
Procedure: First, Cas9:gRNA complex (30 nM Cas9 (NEB) and 36 nM eGFP targeting gRNA) was formed by mixing each component at a 1:1.2 (Cas9:gRNA) molar ratio and incubating at room temperature for 10 minutes. BRD7586 at doses 0, 5, 10, 20, 30, 40 μM were incubated with Cas9:gRNA complex at 37° C. for 30 minutes at 700 rpm. PCR amplified target eGFP DNA (2 nM) was added after 30 minutes of compound incubation and the mixture was incubated at 37° C. for 30 minutes at 700 rpm. Proteinase K (5 μL) was added and incubated at 37° C. for 30 minutes at 700 rpm to digest the Cas9. The resulting mixtures were purified PCR mini elute kit (Qiagen) and the eluted DNA was quantified by Qubit HS DNA quantification method. Equal amounts of DNA samples were run on a 1% agarose E-gels (invitrogen) for 7 minutes. Images were obtained by an Azure 600 (Azure Biosystem) and quantification of band intensities were performed by ImageJ based analysis.

SpCas9 [2] = molecular target: T1, SpCas9; assay: Target engagement in live cells (photo-crosslinking, pull-down); assay type: cell-based; conditions: HEK293T, 20 μM probe, 20 μM competitor
Procedure: HEK293T cells were plated in a 6-well plate (400,000 cells/well). The next day, cells were transfected with […] of Cas9 expression plasmid (pX330, Addgene #42230)^51 using Lipofectamine 3000 (Invitrogen). Eight hours after transfection, cells were split into 4 wells of a 12-well plate. Total 24 h after transfection, cells were treated with DMSO, Diazirine-BRD7586 (20 μM), or Diazirine-BRD7586 with BRD7586 (both at 20 μM) for 2 h. Cells were washed with PBS once, and 500 μL of fresh PBS was added to each well. The plate was placed on ice, and cells were irradiated with UV (365 nm) for 15 min. After the removal of PBS, cells were stored at−80° C. until further analysis. Thawed cells were suspended in a lysis buffer (25 mM HEPES, 50 mM KCl, 1% Triton X-100, 1× protease inhibitor cocktail, pH 7.4, 200 μL per well), and a brief sonication was performed to ensure cell lysis. Next, click chemistry was performed with 100 μM of biotin-azide, 350 μM of Cu-TBTA, and 1.5 mM of ascorbate. The reaction was proceeded for 2 h at room temperature with mild rotation, then proteins were precipitated by the addition of cold methanol (5-fold volume of the reaction mixture) to the mixture and keeping at −80° C. for >2 h. Protein pellet was obtained by centrifugation for 10 min at 16,000 g and 4° C. […]

SpCas9 [3] = molecular target: T1, SpCas9; assay: Strand displacement assay (SDA) / cumulative activity assay (CAA), SpCas9 primary screen; assay type: biochemical; conditions: result in words
Outline: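 SpCas9:gRNA RNP in 20 mM Tris-HCl pH 7.5, 100 mM KCl, 5 mM MgCl2 was used at 10 nM (2× stock) with Alexa Fluor 647-labelled substrate and excess quencher strand (1 nM and 5 nM, 2× stocks). Fluorescence was read after 2.5 h at 37 °C, where cleavage lets the quencher strand anneal.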

HEK293T cells = assay: CellTiter-Glo cell viability assay, HEK293T; assay type: cell-based, human; conditions: 24 h
Procedure: (§1) HEK293T cells or U2OS.eGFP.PEST cells were plated in a 96-well plate at the density of 30,000 cells per well or 20,000 cells per well, respectively. The next day, cells were treated with indicated amount of compounds for 24 h. Then, cellular ATP levels were measured using CellTiter-Glo Luminescent Cell Viability Assay (Promega) with an EnVision Multilabel Plate Reader (PerkinElmer) at the integration time of 0.5 s per well.

U2OS.eGFP.PEST cells = assay: CellTiter-Glo cell viability assay, U2OS.eGFP.PEST; assay type: cell-based, human; conditions: 24 h
Procedure: as §1

T1 sequence (Q99ZW2 whole entry): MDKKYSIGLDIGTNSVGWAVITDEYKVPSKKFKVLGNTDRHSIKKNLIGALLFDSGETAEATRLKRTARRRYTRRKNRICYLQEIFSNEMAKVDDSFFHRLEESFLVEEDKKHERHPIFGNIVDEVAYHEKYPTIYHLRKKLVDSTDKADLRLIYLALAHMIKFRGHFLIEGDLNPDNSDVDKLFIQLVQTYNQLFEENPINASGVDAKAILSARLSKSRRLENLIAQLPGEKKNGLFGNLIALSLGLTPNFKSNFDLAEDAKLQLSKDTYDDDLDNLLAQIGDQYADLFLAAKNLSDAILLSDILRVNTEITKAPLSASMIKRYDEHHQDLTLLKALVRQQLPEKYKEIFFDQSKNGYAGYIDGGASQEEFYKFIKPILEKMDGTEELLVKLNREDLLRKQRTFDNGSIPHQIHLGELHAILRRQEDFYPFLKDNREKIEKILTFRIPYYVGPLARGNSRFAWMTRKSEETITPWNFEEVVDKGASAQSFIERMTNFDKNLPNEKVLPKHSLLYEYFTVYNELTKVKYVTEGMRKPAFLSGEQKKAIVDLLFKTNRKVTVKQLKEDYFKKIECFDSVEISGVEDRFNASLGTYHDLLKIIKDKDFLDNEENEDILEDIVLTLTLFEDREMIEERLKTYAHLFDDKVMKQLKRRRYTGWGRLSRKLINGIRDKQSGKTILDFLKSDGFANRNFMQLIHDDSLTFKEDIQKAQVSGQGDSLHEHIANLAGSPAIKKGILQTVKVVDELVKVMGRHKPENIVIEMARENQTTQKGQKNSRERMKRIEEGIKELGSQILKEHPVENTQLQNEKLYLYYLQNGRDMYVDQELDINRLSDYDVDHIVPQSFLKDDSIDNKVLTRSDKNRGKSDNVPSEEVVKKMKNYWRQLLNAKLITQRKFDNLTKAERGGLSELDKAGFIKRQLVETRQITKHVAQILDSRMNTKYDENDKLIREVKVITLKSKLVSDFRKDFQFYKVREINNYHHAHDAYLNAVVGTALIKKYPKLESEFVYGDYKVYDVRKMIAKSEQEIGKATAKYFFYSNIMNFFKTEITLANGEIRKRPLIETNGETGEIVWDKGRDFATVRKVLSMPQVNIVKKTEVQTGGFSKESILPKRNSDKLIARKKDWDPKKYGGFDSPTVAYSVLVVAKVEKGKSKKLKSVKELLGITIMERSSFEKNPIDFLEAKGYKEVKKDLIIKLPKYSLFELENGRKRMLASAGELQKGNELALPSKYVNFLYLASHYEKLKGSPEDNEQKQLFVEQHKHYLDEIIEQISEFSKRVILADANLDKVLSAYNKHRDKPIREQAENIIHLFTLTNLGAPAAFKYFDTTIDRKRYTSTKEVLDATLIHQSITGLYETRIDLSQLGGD

## O=C(CCS(=O)(=O)c1ccc(Cl)cc1)Nc1nc(-c2ccncc2)cs1 [BRD7586]
SpCas9 [1]
  Inhibition of SpCas9 in in vitro DNA cleavage assay: dose-dependent inhibition
SpCas9 [2]
  Target engagement in live cells: demonstrating target engagement in live cells
SpCas9 [3]
  Inhibition of SpCas9 in CAA: dose-dependent inhibition
HEK293T cells
  Cytotoxicity: without introducing cytotoxicity
U2OS.eGFP.PEST cells
  Cytotoxicity: without introducing cytotoxicity
